Measured values: paper PMC7321065, “Discovery of New Schiff Bases Tethered Pyrazole Moiety: Design, Synthesis, Biological Evaluation, and Molecular Docking Study as Dual Targeting DHFR/DNA Gyrase Inhibitors with Immunomodulatory Activity” (Molecules, 2020)
Converted amounts (≈) assume the structure as drawn.

Key:
[1] = system: P. aeruginosa ATCC BAA-2111; experiment: Inhibition zone against MDRB, agar plate diffusion; assay type: cell-based
[2] = system: mammary gland breast cancer cell line (MCF-7); experiment: Antiproliferative activity, MTT assay; assay type: cell-based, human; conditions: Homo sapiens, MCF7, 48 h, read-out: IC50 MCF-7
Procedure: (§1) 3-[4, 5-Dimethyl-2-thiazolyl)-2, 5-diphenyl-2 H-tetrazolium bromide (MTT) protocol is based on the cleavage of the tetrazolium salt by mitochondrial dehydrogenases in viable cells. Cells were dispensed in a 96 well sterile microplate (5 x 10^4 cells/well), and incubated at 37 °C with series of different concentrations, in DMSO, of each tested compound or Doxorubicin ® (positive control) for 48 h in a serum free medium prior to the MTT assay. After incubation, media were carefully removed, 40 µL of MTT (2.5 mg/mL) were added to each well and then incubated for an additional 4 h. The purple formazan dye crystals were solubilized by the addition of 200 µL of DMSO. The absorbance was measured at 590 nm using a SpectraMax® Paradigm® Multi-Mode microplate reader. The relative cell viability was expressed as the mean percentage of viable cells compared to the untreated control cells.
(§2) All experiments were conducted in triplicate and repeated in three different days. All the values were represented as mean ± SD. IC 50s were determined by probit analysis using SPSS software program (SPSS

[3] = system: hepatocellular carcinoma cell line (HepG2); experiment: Antiproliferative activity, MTT assay; assay type: cell-based, human; conditions: Homo sapiens, HepG2, 48 h, read-out: IC50 HepG-2
Procedure: as §1, §2

[4] = system: P. aeruginosa ATCC BAA-2111; experiment: MIC/MBC against MDRB, paper disk diffusion; assay type: cell-based; conditions: Pseudomonas aeruginosa, ATCCBAA2111
Source text: (§3) The inhibition zone (IZ, mm±standard deviation) of pyrazole Schiff bases ( 6b, 7b, 7c, 8a, 8d and 9b) was
(§4) measurement according to the agar plate diffusion method against a panel of multidrug-resistant bacteria
(MDRB). […]

E. coli ATCC BAA-196 [5] = experiment: MIC/MBC against MDRB, paper disk diffusion; assay type: cell-based; conditions: Escherichia coli, ATCCBAA196
Source text: as §3, §4
(MDRB). […]

[6] = system: S. aureus ATCC 43300 (MRSA); experiment: MIC/MBC against MDRB, paper disk diffusion; assay type: cell-based; conditions: Staphylococcus aureus
Source text: as §3, §4
(MDRB). […]

S. aureus ATCC 33591 [7] = experiment: MIC/MBC against MDRB, paper disk diffusion; assay type: cell-based; conditions: Staphylococcus aureus, ATCC33591
Source text: as §3, §4
(MDRB). […]

[8] = system: S. aureus ATCC 43300 (MRSA); experiment: Inhibition zone against MDRB, agar plate diffusion; assay type: cell-based
Candida albicans [9] = experiment: MIC/MFC, paper disk diffusion; assay type: cell-based; conditions: Candida albicans
Procedure: (§5) Antimicrobial activities of the newly formed Schiff bases (6a–d, 7a–d, 8a–d, and 9a–d) and reference drugs were evaluated against three Gram-positive, three Gram-negative, and two fungi strain at Al-Azhar University, Cairo, Egypt. The inhibition zones (IZ, in mm ± standard deviation) and the minimal inhibitory concentration (MIC) (μg/mL) were determined by the conventional paper disk diffusion method.
(§6) In Vitro Antimicrobial Activities […]
(§7) DMSO was used for dissolving […]
(§8) the tested microorganisms.
(§9) The minimum inhibitory concentration (MIC), the minimum bactericidal concentration (MBC, µg/ml) and […]
(§10) and 9b) were determined by the conventional technique termed paper disk diffusion, by applying paper […]
(§11) Bacteria were grown on nutrient agar medium, while fungi and yeast were grown on Sabouraud agar medium. The purified streptomycin was dissolved in […]
(§12) inoculated with test organism. Growth inhibition was examined after 24 hr. from incubation at 37 °C for bacteria and after 72 hr. incubation at 27 °C for fungi and yeast. Each test was repeated three times. MIC was expressed as the lowest concentration inhibiting test organism’s growth. […]

Fusarium oxysporum [10] = experiment: MIC/MFC, paper disk diffusion; assay type: cell-based; conditions: Fusarium oxysporum
Procedure: as §5, §6, §7, §8, §9, §10, §11, §12

E. coli ATCC BAA-196 [11] = experiment: Inhibition zone against MDRB, agar plate diffusion; assay type: cell-based
Candida albicans [12] = experiment: Inhibition zone, agar plate diffusion; assay type: cell-based; conditions: read-out: Inhibition zone (IZ)
Procedure: as §5
(§13) In Vitro Antimicrobial Activities
(§14) The antimicrobial activities inhibition zone (IZ, mm±standard deviation) of pyrazole Schiff bases ( 6a-d , 7a-d, 8a-d and 9a-d ) was measurement according to the agar plate diffusion method. Briefly, 100 µl of the […]
(§15) […] of each sample (at 0.5 mg/mL) was added to each well (10 mm diameter holes cut in the agar gel). The plates were incubated for 24 h at 37 °C (for bacteria and yeast) and for 72 h at 27 °C (for filamentous fungi), each test was repeated three times. After incubation, the microorganism's growth was observed. […]
(§16) drugs while Amphotericin B was used as standard antifungal drug. The resulting inhibition zone diameters were measured in millimeters and used as criterion for the antimicrobial activity. Solvent controls (DMSO) were included in every experiment as negative controls. DMSO was used for dissolving […]
(§17) the tested microorganisms. […]
(§18) Bacteria were grown on nutrient agar medium, while fungi and yeast were grown on Sabouraud agar medium. […]

Staphylococcus aureus [13] = experiment: Inhibition zone, agar plate diffusion; assay type: cell-based; conditions: read-out: Inhibition zone (IZ)
Procedure: as §5, §13, §14, §15, §16, §17, §18

Fusarium oxysporum [14] = experiment: Inhibition zone, agar plate diffusion; assay type: cell-based; conditions: read-out: Inhibition zone (IZ)
Procedure: as §5, §13, §14, §15, §16, §17, §18

Salmonella typhi [15] = experiment: Inhibition zone, agar plate diffusion; assay type: cell-based; conditions: Salmonella enterica, St, mm ± standard deviation, sample at 0.5 mg/mL, read-out: Inhibition zone (IZ)
Procedure: as §5, §13, §14, §15, §16, §17, §18

Enterococcus faecalis [16] = experiment: MIC/MBC, paper disk diffusion; assay type: cell-based; conditions: for MBC: E. faecalis
Procedure: as §5, §6, §7, §8, §9, §10, §11, §12

Pseudomonas aeruginosa [17] = experiment: MIC/MBC, paper disk diffusion; assay type: cell-based; conditions: Pseudomonas aeruginosa; for MBC: P. aeruginosa
Procedure: as §5, §6, §7, §8, §9, §10, §11, §12

Staphylococcus aureus [18] = experiment: MIC/MBC, paper disk diffusion; assay type: cell-based; conditions: Staphylococcus aureus; for MBC: S. aureus
Procedure: as §5, §6, §7, §8, §9, §10, §11, §12

Salmonella typhi [19] = experiment: MIC/MBC, paper disk diffusion; assay type: cell-based; conditions: Salmonella enterica, S. typhi; for MBC: read-out: MBC
Procedure: as §5, §6, §7, §8, §9, §10, §11, §12

Escherichia coli [20] = experiment: MIC/MBC, paper disk diffusion; assay type: cell-based; conditions: Escherichia coli; for MBC: E. coli
Procedure: as §5, §6, §7, §8, §9, §10, §11, §12

Bacillus subtilis [21] = experiment: MIC/MBC, paper disk diffusion; assay type: cell-based; conditions: for Fold more potent than Tetracycline (MIC) / MBC: B. subtilis; for MIC / MBC: Bacillus subtilis
Procedure: as §5, §6, §7, §8, §9, §10, §11, §12

S. aureus ATCC 33591 [22] = experiment: Inhibition zone against MDRB, agar plate diffusion; assay type: cell-based
Enterococcus faecalis [23] = experiment: Inhibition zone, agar plate diffusion; assay type: cell-based; conditions: read-out: Inhibition zone (IZ)
Procedure: as §5, §13, §14, §15, §16, §17

Pseudomonas aeruginosa [24] = experiment: Inhibition zone, agar plate diffusion; assay type: cell-based; conditions: read-out: Inhibition zone (IZ)
Procedure: as §5, §13, §14, §15, §16, §17

Escherichia coli [25] = experiment: Inhibition zone, agar plate diffusion; assay type: cell-based; conditions: read-out: Inhibition zone (IZ)
Procedure: as §5, §13, §14, §15, §16, §17

Bacillus subtilis [26] = experiment: Inhibition zone, agar plate diffusion; assay type: cell-based; conditions: read-out: Inhibition zone (IZ)
Procedure: as §5, §13, §14, §15, §16, §17

Row | SMILES | Mean Diameter of Inhibition Zone against MDRB [1] | IC50 [2] | IC50 [3] | MBC [4] | MIC [4] | MBC (E. coli ATCC BAA-196 [5]) | MIC (E. coli ATCC BAA-196 [5]) | MBC [6] | MIC [6] | MBC (S. aureus ATCC 33591 [7]) | MIC (S. aureus ATCC 33591 [7]) | Mean Diameter of Inhibition Zone against MDRB [8] | MFC (Candida albicans [9]) | MIC (Candida albicans [9]) | MFC (Fusarium oxysporum [10]) | MIC (Fusarium oxysporum [10]) | Mean Diameter of Inhibition Zone against MDRB (E. coli ATCC BAA-196 [11]) | zone of inhibition at 500 µg/mL (Candida albicans [12]) | zone of inhibition at 500 µg/mL (Staphylococcus aureus [13]) | zone of inhibition at 500 µg/mL (Fusarium oxysporum [14]) | further results
1 | COc1ccc(Nc2n[nH]c(N=Cc3ccc(N4CCCCC4)cc3)c2C(=O)Nc2ccc(Cl)cc2)cc1 [8d, N-(p-Chlorophenyl)-3-(p-methoxyphenylamino)-5-(4-(piperidin-1-yl)benzylideneamino)-1H-pyrazole-4-carboxamide] | 25 ± 0.99 mm | 3.69 ± 0.22 µM | 2.63 ± 0.44 µM | 11.9 µg/mL (≈ 22.4 µM) | 6.25 µg/mL (≈ 11.8 µM) | 31.2 µg/mL (≈ 59.1 µM) | 15.6 µg/mL (≈ 29.5 µM) | 31.2 µg/mL (≈ 59.1 µM) | 15.6 µg/mL (≈ 29.5 µM) | 7.41 µg/mL (≈ 14 µM) | 3.9 µg/mL (≈ 7.37 µM) | 18 ± 0.5 mm | 17.6 µg/mL (≈ 33.2 µM) | 9.25 µg/mL (≈ 17.5 µM) | 56.2 µg/mL (≈ 106 µM) | 31.2 µg/mL (≈ 59.1 µM) | 16 ± 0.11 mm | 25 ± 0.33 mm | 25 ± 0.77 mm | 21 ± 0.16 mm | zone of inhibition at 500 µg/mL (Salmonella typhi [15]): 23 ± 0.65 mm; MIC (Enterococcus faecalis [16]): 15.6 µg/mL (≈ 29.5 µM); MBC (Enterococcus faecalis [16]): 31.2 µg/mL (≈ 59.1 µM); MIC (Pseudomonas aeruginosa [17]): 27.8 µg/mL (≈ 52.5 µM); MBC (Pseudomonas aeruginosa [17]): 55.5 µg/mL (≈ 105 µM); MIC (Staphylococcus aureus [18]): 7.81 µg/mL (≈ 14.8 µM); MBC (Staphylococcus aureus [18]): 15.6 µg/mL (≈ 29.5 µM); MIC (Salmonella typhi [19]): 18.5 µg/mL (≈ 35 µM); MBC (Salmonella typhi [19]): 36.5 µg/mL (≈ 69 µM); MIC (Escherichia coli [20]): 7.81 µg/mL (≈ 14.8 µM); MBC (Escherichia coli [20]): 15.6 µg/mL (≈ 29.5 µM); Fold more potent than Tetracycline (MIC) (Bacillus subtilis [21]): 8 fold; MIC (Bacillus subtilis [21]): 3.9 µg/mL (≈ 7.37 µM); MBC (Bacillus subtilis [21]): 6.63 µg/mL (≈ 12.5 µM); Mean Diameter of Inhibition Zone against MDRB (S. aureus ATCC 33591 [22]): 21 ± 0.23 mm; zone of inhibition at 500 µg/mL (Enterococcus faecalis [23]): 23 ± 0.65 mm; zone of inhibition at 500 µg/mL (Pseudomonas aeruginosa [24]): 21 ± 0.2 mm; zone of inhibition at 500 µg/mL (Escherichia coli [25]): 26 ± 0.11 mm; zone of inhibition at 500 µg/mL (Bacillus subtilis [26]): 24 ± 0.5 mm
2 | COc1ccc(Nc2n[nH]c(N=Cc3c(C)n(C)n(-c4ccccc4)c3=O)c2C(=O)Nc2ccccc2)cc1 [6b, 5-((1,5-Dimethyl-3-oxo-2-phenyl-2,3-dihydro-1H-pyrazol-4-yl)methyleneamino)-3-(p-methoxyphenylamino)-N-phenyl-1H-pyrazole-4-carboxamide] | 21 ± 0.66 mm | 5.09 ± 0.52 µM | 3.42 ± 0.17 µM | 16 µg/mL (≈ 30.6 µM) | 7.81 µg/mL (≈ 15 µM) | 7.41 µg/mL (≈ 14.2 µM) | 3.9 µg/mL (≈ 7.48 µM) | 11.9 µg/mL (≈ 22.8 µM) | 6.25 µg/mL (≈ 12 µM) | 15.6 µg/mL (≈ 29.9 µM) | 7.81 µg/mL (≈ 15 µM) | 21 ± 0.21 mm | 53.1 µg/mL (≈ 102 µM) | 31.2 µg/mL (≈ 59.9 µM) | 88.8 µg/mL (≈ 170 µM) | 55.5 µg/mL (≈ 106 µM) | 25 ± 0.15 mm | 22 ± 0.56 mm | 24 ± 0.12 mm | 18 ± 0.15 mm | zone of inhibition at 500 µg/mL (Salmonella typhi [15]): 20 ± 0.16 mm; MIC (Enterococcus faecalis [16]): 9.25 µg/mL (≈ 17.7 µM); MBC (Enterococcus faecalis [16]): 18.5 µg/mL (≈ 35.5 µM); MIC (Pseudomonas aeruginosa [17]): 31.2 µg/mL (≈ 59.9 µM); MBC (Pseudomonas aeruginosa [17]): 53.1 µg/mL (≈ 102 µM); MIC (Staphylococcus aureus [18]): 15.6 µg/mL (≈ 29.9 µM); MBC (Staphylococcus aureus [18]): 31.2 µg/mL (≈ 59.9 µM); MIC (Salmonella typhi [19]): 15.6 µg/mL (≈ 29.9 µM); MBC (Salmonella typhi [19]): 28.1 µg/mL (≈ 53.9 µM); MIC (Escherichia coli [20]): 62.5 µg/mL (≈ 120 µM); MBC (Escherichia coli [20]): 87.5 µg/mL (≈ 168 µM); Fold more potent than Tetracycline (MIC) (Bacillus subtilis [21]): 4 fold; MIC (Bacillus subtilis [21]): 7.81 µg/mL (≈ 15 µM); MBC (Bacillus subtilis [21]): 14.1 µg/mL (≈ 26.9 µM); zone of inhibition at 500 µg/mL (Enterococcus faecalis [23]): 29 ± 0.55 mm; zone of inhibition at 500 µg/mL (Pseudomonas aeruginosa [24]): 24 ± 0.2 mm; zone of inhibition at 500 µg/mL (Escherichia coli [25]): 25 ± 0.81 mm; zone of inhibition at 500 µg/mL (Bacillus subtilis [26]): 30 ± 0.5 mm
